System: multipotent stem cells
Experiment: Nkx2-5-transfected multipotent stem cells cocultured with rat cardiomyocytes
Format: cell-based, human
Conditions: coculture with rat cardiomyocytes
Text: Red=human specific Troponin I, Green=Human cells. Following transfection, multipotent stem cells were cocultured with rat cardiomyocytes that provide environmental signals to allow the transfected cells to develop properly.

Nkx2-5: developmental control gene Nkx2-5 (SEQ ID NO: 12) transfected into multipotent stem cells (DNA TGCTGGCATGTCCGCTGTCT; listed as DNA, chemistry not given here)
biasing of differentiation (human specific Troponin I staining): biases the differentiation toward the development of cardiac cells

Source: US9127291B2, “Methods and products for biasing cellular development” (University of Central Florida Research Foundation, Inc., priority 2004, dated 2015)
